*1 amine or outer side, *2 acyl side, *3 side chain or, on linkers, in order; H or OH if unused. Where a SMILES comes first, the peptide text is derived from it. Bridges are numbered along the chain shown (N, C = ends). [ ]: non-standard residue; d: D form. The star is where a group is joined. hPhe(3-Cl-4-CF3) = N[C@@H](CCc1ccc(C(F)(F)F)c(Cl)c1)C(=O)O; NPrPhe(4-CF3) = CCCN[C@@H](Cc1ccc(C(F)(F)F)cc1)C(=O)O; NEtAsp = CCN([C@@H](CC(=O)[*:3])C(=O)[*:2])[*:1]; NMeGly(cPent) = CN[C@H](C(=O)O)C1CCCC1; NMeD = CN[C@@H](CC(=O)O)C(=O)O; NMeL = CN[C@@H](CC(C)C)C(=O)O; Morpholide = C1CN(*)CCO1; Ac5c = NC1(C(=O)O)CCCC1; NEtG = CCNCC(=O)O; Sar = CNCC(=O)O
How the values were obtained:
[1] = target: GDP-bound NRAS wild-type protein (Homo sapiens, UniProt P01111); assay: Binding to NRAS by surface plasmon resonance (SPR), Single Cycle Kinetics; conditions: ratio of KD for GDP-bound NRAS wild-type protein to KD for KRAS, SPR
[2] = target: GDP-bound KRAS wild-type protein (Homo sapiens, UniProt P01116); assay: Binding to KRAS by surface plasmon resonance (SPR), Single Cycle Kinetics; conditions: SPR, Single Cycle Kinetics, GDP-bound KRAS wild-type protein; read-out: KRAS KD
[3] = target: GDP-bound HRAS wild-type protein (Homo sapiens, UniProt P01112); assay: Binding to HRAS by surface plasmon resonance (SPR), Single Cycle Kinetics; conditions: ratio of KD for GDP-bound HRAS wild-type protein to KD for KRAS, SPR
[4] = system: human lung cancer strain NCI-H441; assay: cells; conditions: NCI-H441, 96 h, read-out: NCI-H441 IC50 (nM), NCI-H441 cell proliferation, 4 days, CellTiter-Glo;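 further: cell proliferation inhibition after four days measured by CellTiter-Glo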

Sequence of GDP-bound HRAS wild-type protein (P01112 whole entry): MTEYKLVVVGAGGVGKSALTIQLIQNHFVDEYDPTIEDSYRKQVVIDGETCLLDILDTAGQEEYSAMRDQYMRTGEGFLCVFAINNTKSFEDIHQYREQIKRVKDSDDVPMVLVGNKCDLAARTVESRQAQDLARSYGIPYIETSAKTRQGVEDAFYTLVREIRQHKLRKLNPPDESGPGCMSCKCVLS
Sequence of GDP-bound KRAS wild-type protein (P01116 whole entry): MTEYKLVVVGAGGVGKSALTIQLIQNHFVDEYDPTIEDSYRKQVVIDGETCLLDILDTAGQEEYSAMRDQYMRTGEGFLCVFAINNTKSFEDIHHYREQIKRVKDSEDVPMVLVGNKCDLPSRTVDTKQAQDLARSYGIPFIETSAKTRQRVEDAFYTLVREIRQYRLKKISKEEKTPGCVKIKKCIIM
Sequence of GDP-bound NRAS wild-type protein (P01111 whole entry): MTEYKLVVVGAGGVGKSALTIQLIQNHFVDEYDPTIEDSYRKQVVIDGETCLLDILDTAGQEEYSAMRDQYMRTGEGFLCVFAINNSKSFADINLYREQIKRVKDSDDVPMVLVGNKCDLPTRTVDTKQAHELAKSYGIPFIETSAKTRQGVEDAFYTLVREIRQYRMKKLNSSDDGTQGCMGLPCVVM

Row | SMILES | NRAS/KRAS (KD ratio) [1] | Kd [2] | HRAS/KRAS (KD ratio) [3] | IC50 [4]
1 | CCCN1C(=O)CN(C)C(=O)CNC(=O)[C@H]([C@@H](C)CC)NC(=O)[C@H](CC(C)C)N(C)C(=O)C[C@@H](C(=O)N2CCOCC2)N(C)C(=O)[C@H](C2CCCC2)N(C)C(=O)C2(CCCC2)NC(=O)[C@@H]2CCCN2C(=O)[C@H](CCc2ccc(C(F)(F)F)c(Cl)c2)NC(=O)CN(CC)C(=O)[C@@H]1Cc1ccc(C(F)(F)F)cc1 [PP1969] ([NMeL]IG[Sar][NPrPhe(4-CF3)][NEtG][hPhe(3-Cl-4-CF3)]P[Ac5c][NMeGly(cPent)][NMeD]-Morpholide; lactam N-11) | B (a compound having 3 or more and less than 10 is denoted as B) | 2.1 nM | C (A compound having a KD ratio of 0.1 or more and less than 3 is denoted as C) | 74 nM
2 | CCCN1C(=O)CN(C)C(=O)CNC(=O)[C@H]([C@@H](C)CC)NC(=O)[C@H](CC(C)C)N(C)C(=O)C[C@@H](C(=O)N2CCOCC2)N(CC)C(=O)[C@H](C2CCCC2)N(C)C(=O)C2(CCCC2)NC(=O)[C@@H]2CCCN2C(=O)[C@H](CCc2ccc(C(F)(F)F)c(Cl)c2)NC(=O)CN(C)C(=O)[C@@H]1Cc1ccc(C(F)(F)F)cc1 [PP1970] ([NMeL]IG[Sar][NPrPhe(4-CF3)][Sar][hPhe(3-Cl-4-CF3)]P[Ac5c][NMeGly(cPent)][NEtAsp]-Morpholide; lactam N-11) | B (a compound having 3 or more and less than 10 is denoted as B) | 0.62 nM | B (a compound having 3 or more and less than 10 is denoted as B) | 16.8 nM
3 | CCCN1C(=O)CN(C)C(=O)[C@H](C)NC(=O)[C@H]([C@@H](C)CC)NC(=O)[C@H](CC(C)C)N(C)C(=O)C[C@@H](C(=O)N2CCOCC2)N(C)C(=O)[C@H](C2CCCC2)N(C)C(=O)C2(CCCC2)NC(=O)[C@@H]2CCCN2C(=O)[C@H](CCc2ccc(C(F)(F)F)c(Cl)c2)NC(=O)CN(C)C(=O)[C@@H]1Cc1ccc(C(F)(F)F)cc1 [PP1971] ([NMeL]IA[Sar][NPrPhe(4-CF3)][Sar][hPhe(3-Cl-4-CF3)]P[Ac5c][NMeGly(cPent)][NMeD]-Morpholide; lactam N-11) | B (a compound having 3 or more and less than 10 is denoted as B) | 5 nM | B (a compound having 3 or more and less than 10 is denoted as B) | 38 nM
4 | CC[C@H](C)[C@@H]1NC(=O)[C@H](CCOC)N(C)C(=O)C[C@@H](C(=O)N(C)CC)N(C)C(=O)[C@H](C2CCCC2)N(C)C(=O)C2(CC(C)(C)C2)NC(=O)[C@@H]2C[C@H](C)CN2C(=O)[C@H](CCc2cc(F)c(C(F)(F)F)c(F)c2)NC(=O)CN(C)C(=O)[C@H](Cc2ccc(C(F)(F)F)cc2)N2CC/C=C\C[C@@H](C2=O)N(C)C(=O)CN(C)C1=O [PP1972] | A (a compound having 10 or more and less than 20 is denoted as A) | 0.15 nM | A (a compound having 10 or more and less than 20 is denoted as A) | 13.2 nM
5 | CCCOC[C@H]1C(=O)N[C@@H]([C@@H](C)CC)C(=O)N(C)CC(=O)N(C)[C@H]2C/C=C\CCN(C2=O)[C@@H](Cc2ccc(C(F)(F)F)cc2)C(=O)N(C)CC(=O)N[C@@H](CCc2ccc(C(F)(F)F)c(OC)c2)C(=O)N2C[C@H](OCC)C[C@H]2C(=O)NC2(CC(C)(C)C2)C(=O)N(C)[C@@H](C2CCCC2)C(=O)N(C)[C@H](C(=O)N(C)CC)CC(=O)N1C [PP1973] | A (a compound having 10 or more and less than 20 is denoted as A) | 0.099 nM | B (a compound having 3 or more and less than 10 is denoted as B) | 8.7 nM
6 | CCCN(C)C(=O)[C@@H]1CC(=O)N(C)[C@@H](CCOC)C(=O)N[C@@H]([C@@H](C)CC)C(=O)N(C)CC(=O)N(C)[C@H]2C/C=C\CCN(C2=O)[C@@H](Cc2ccc(C(F)(F)F)cc2)C(=O)N(C)CC(=O)N[C@@H](CCc2cc(F)c(C(F)(F)F)c(F)c2)C(=O)N2C[C@@H](C)C[C@H]2C(=O)NC2(CC(C)(C)C2)C(=O)N(C)[C@@H](C2CCCC2)C(=O)N1C [PP1974] | A (a compound having 10 or more and less than 20 is denoted as A) | 0.18 nM | A (a compound having 10 or more and less than 20 is denoted as A) | 50 nM
7 | CCCN(C)C(=O)[C@@H]1CC(=O)N(C)[C@@H](CCOC)C(=O)N[C@@H]([C@@H](C)CC)C(=O)N(C)CC(=O)N(C)[C@H]2C/C=C\CCN(C2=O)[C@@H](Cc2ccc(C(F)(F)F)cc2)C(=O)N(C)CC(=O)N[C@@H](CCc2ccc(C(F)(F)F)c(OC)c2)C(=O)N2C[C@H](OCC)C[C@H]2C(=O)NC2(CC(C)(C)C2)C(=O)N(C)[C@@H](C2CCCC2)C(=O)N1C [PP1975] | A (a compound having 10 or more and less than 20 is denoted as A) | 0.11 nM | A (a compound having 10 or more and less than 20 is denoted as A) | 13.4 nM
8 | CC[C@H](C)[C@@H]1NC(=O)[C@H](C(C)C)N(C)C(=O)C[C@@H](C(=O)N(C)CC)N(C)C(=O)[C@H](C2CCCC2)N(C)C(=O)C2(CC(C)(C)C2)NC(=O)[C@@H]2C[C@H](C)CN2C(=O)[C@H](CCc2cc(F)c(C(F)(F)F)c(F)c2)NC(=O)CN(C)C(=O)[C@H](Cc2ccc(C(F)(F)F)cc2)N2CC/C=C\C[C@@H](C2=O)N(C)C(=O)CN(C)C1=O [PP1976] | AA (a compound having 20 or more is denoted as AA) | 0.37 nM | A (a compound having 10 or more and less than 20 is denoted as A) | 92 nM
9 | CCO[C@@H]1C[C@H]2C(=O)NC3(CC(C)(C)C3)C(=O)N(C)[C@@H](C3CCCC3)C(=O)N(C)[C@H](C(=O)N(C)CC)CC(=O)N(C)[C@@H](C(C)C)C(=O)N[C@@H]([C@@H](C)CC)C(=O)N(C)CC(=O)N(C)[C@H]3C/C=C\CCN(C3=O)[C@@H](Cc3ccc(C(F)(F)F)cc3)C(=O)N(C)CC(=O)N[C@@H](CCc3ccc(C(F)(F)F)c(OC)c3)C(=O)N2C1 [PP1977] | AA (a compound having 20 or more is denoted as AA) | 0.15 nM | A (a compound having 10 or more and less than 20 is denoted as A) | 20.2 nM
10 | CCO[C@@H]1C[C@H]2C(=O)NC3(CC(C)(C)C3)C(=O)N(C)[C@@H](C3CCCC3)C(=O)N(C)[C@H](C(=O)N(C)C)CC(=O)N(C)[C@@H](C(C)C)C(=O)N[C@@H]([C@@H](C)CC)C(=O)N(C)CC(=O)N(C)[C@H]3C/C=C\CCN(C3=O)[C@@H](Cc3ccc(C(F)(F)F)cc3)C(=O)N(C)CC(=O)N[C@@H](CCc3ccc(C(F)(F)F)c(OC)c3)C(=O)N2C1 [PP1979] | AA (a compound having 20 or more is denoted as AA) | 0.087 nM | A (a compound having 10 or more and less than 20 is denoted as A) | 12.5 nM
11 | CCO[C@@H]1C[C@H]2C(=O)NC3(CC(C)(C)C3)C(=O)N(C)[C@@H](C3CCCC3)C(=O)N(C)[C@H](C(=O)N(C)CC)CC(=O)N(C)[C@@H](C3CC3)C(=O)N[C@@H]([C@@H](C)CC)C(=O)N(C)CC(=O)N(C)[C@H]3C/C=C\CCN(C3=O)[C@@H](Cc3ccc(C(F)(F)F)cc3)C(=O)N(C)CC(=O)N[C@@H](CCc3ccc(C(F)(F)F)c(OC)c3)C(=O)N2C1 [PP1981] | A (a compound having 10 or more and less than 20 is denoted as A) | 0.1 nM | A (a compound having 10 or more and less than 20 is denoted as A) | 20.7 nM

Source: US20240158446A1, “CYCLIC COMPOUND HAVING SELECTIVE INHIBITORY ACTION ON KRAS OVER HRAS AND NRAS” (CHUGAI SEIYAKU KABUSHIKI KAISHA, priority 2021, published 2024)
